Assay results as given in the supplement of paper PMC10307832.

Key:
Assay in all cases: relative viability (nuclei count vs DMSO), 5 days (fraction); higher = more cells survive
[1] = compound: CC1=CC(=CC=C1)NC2=NC(=CS2)C3=CC=NC=C3 + Nc1nc2[nH]cc(CCc3ccc(C(=O)N[C@@H](CCC(=O)O)C(=O)O)cc3)c2c(=O)[nH]1 [Pemetrexed] (partner 0.2 µM)
Summary of the method: (§1)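 Relative viability divides the nuclei count in treated wells by that in vehicle wells. Lung cancer cell lines were seeded in 1536-well plates, dosed by pin tool the next day, and fixed and stained after 5 days in one step with final 0.05% Triton X-100, 1% formaldehyde and 1 ug/ml Hoechst. Dosing was a single drug or a fixed anchor-drug dose plus five library-drug doses (not always all listed) in √10 steps, and values are medians of duplicate plates imaged at 4×.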

Masitinib + OSI-027 = compound: Cc1ccc(NC(=O)c2ccc(CN3CCN(C)CC3)cc2)cc1Nc1nc(-c2cccnc2)cs1 [Masitinib] + COc1cccc2cc(-c3nc([C@H]4CC[C@H](C(=O)O)CC4)n4ncnc(N)c34)[nH]c12 [OSI-027] (partner 0.5 µM)
Summary of the method: as §1

[2] = compound: CC1=CC(=CC=C1)NC2=NC(=CS2)C3=CC=NC=C3 + C[C@@H](Oc1cc(-c2cnn(C3CCNCC3)c2)cnc1N)c1c(Cl)ccc(F)c1Cl [Crizotinib] (partner 1 µM)
Summary of the method: as §1

[3] = compound: CC1=CC(=CC=C1)NC2=NC(=CS2)C3=CC=NC=C3 + CCNC(=O)c1noc(-c2cc(C(C)C)c(O)cc2O)c1-c1ccc(CN2CCOCC2)cc1 [Luminespib] (partner 0.01 µM)
Summary of the method: as §1

Cell Line	relative viability ([1]; first compound 0.08 µM)	relative viability ([1]; first compound 0.253 µM)	relative viability ([1]; first compound 0.8 µM)	relative viability ([1]; first compound 2.53 µM)	relative viability ([1]; first compound 8 µM)	relative viability (Masitinib + OSI-027; first compound 0.01 µM)	relative viability (Masitinib + OSI-027; first compound 0.03162 µM)	relative viability (Masitinib + OSI-027; first compound 0.1 µM)	relative viability (Masitinib + OSI-027; first compound 0.3162 µM)	relative viability (Masitinib + OSI-027; first compound 1 µM)	relative viability ([2]; first compound 0.08 µM)	relative viability ([2]; first compound 0.253 µM)	relative viability ([2]; first compound 0.8 µM)	relative viability ([2]; first compound 2.53 µM)	relative viability ([2]; first compound 8 µM)	relative viability ([3]; first compound 0.08 µM)	relative viability ([3]; first compound 0.253 µM)	relative viability ([3]; first compound 0.8 µM)	relative viability ([3]; first compound 2.53 µM)	relative viability ([3]; first compound 8 µM)
HCC-15	0.222	0.214	0.203	0.194	0.214	0.635	0.68	0.641	0.588	0.629	0.826	0.807	0.777	0.833	0.79	0.386	0.299	0.475	0.31	0.274
HCC-44	0.537	0.55	0.586	0.663	0.607	0.526	0.497	0.531	0.392	0.59	0.704	0.585	0.651	0.722	0.691	0.974	0.939	1.06	1.01	1.09
HCC-78	0.907	0.963	0.827	0.917	0.9	0.36	0.337	0.364	0.337	0.335	0.324	0.312	0.311	0.333	0.346	–	–	–	–	–
HCC-366	0.154	0.123	0.121	0.113	0.0949	–	1	–	0.792	0.78	0.346	0.387	0.351	0.451	0.638	–	–	–	–	–
HCC-827	0.283	0.274	0.282	0.256	0.272	0.728	0.704	0.832	0.84	0.692	0.945	0.91	0.854	0.89	0.856	0.618	0.453	0.649	0.89	0.726
HOP-62	0.325	0.412	0.458	0.369	0.319	0.759	0.866	0.923	0.929	0.837	0.935	0.788	0.944	0.503	0.93	0.952	0.8	0.867	0.914	0.879
IA-LM	–	–	–	–	–	–	–	–	–	–	0.519	0.581	0.86	0.563	0.466	–	–	–	–	–
LC-2-ad	0.269	0.281	0.308	0.258	0.276	0.862	0.904	0.929	0.738	0.768	0.45	0.419	0.394	0.397	0.396	0.858	–	1.09	0.768	0.965
LCLC-97TM1	0.168	0.161	0.19	0.168	0.182	–	0.534	0.559	0.568	0.516	–	–	0.744	0.366	0.42	0.689	0.794	0.839	0.816	0.825
LCLC-103H	0.415	0.434	0.45	0.46	0.488	0.412	0.526	0.414	0.459	0.404	0.918	0.924	0.902	1.02	0.888	1	0.824	0.878	0.943	0.608
NCI-H522	0.966	1.12	1.17	0.995	1.19	0.784	–	0.781	0.781	0.698	–	–	–	–	–	1.25	1.07	1.34	–	1.28
NCI-H727	–	–	–	–	–	0.523	0.601	0.637	0.576	0.442	0.621	0.737	0.922	0.759	0.575	–	0.373	0.378	0.374	0.402
NCI-H1299	–	–	–	–	–	–	–	–	–	–	0.89	0.891	0.924	0.931	0.804	–	–	–	–	–
NCI-H1395	0.757	–	0.921	0.596	0.728	0.647	0.609	0.71	0.563	0.623	–	–	–	–	–	0.597	0.72	0.688	0.643	0.524
NCI-H1648	0.639	0.626	0.749	0.673	0.633	0.272	–	0.236	0.268	0.254	–	–	–	–	–	–	–	–	–	–
NCI-H1703	–	–	–	–	–	–	–	–	–	–	0.73	1.01	0.683	0.878	0.799	–	–	–	–	–
NCI-H1793	0.603	0.779	0.808	0.604	0.957	0.318	0.205	0.285	0.28	0.254	–	–	–	–	–	0.182	0.177	0.177	0.202	0.344
NCI-H2342	0.615	0.796	0.765	0.789	0.759	0.637	0.58	0.696	0.592	0.593	–	–	–	–	–	0.746	0.717	0.771	0.67	0.676
SW 900	0.507	0.4	0.473	0.42	0.366	0.654	0.443	0.627	0.527	0.482	–	–	–	–	–	0.186	0.178	0.172	0.188	0.178
